Measurements published in US20050019847A1, “ISG15-conjugated proteins” (priority 2003, published 2005).
Peptide text beside a SMILES is read from it. * marks the point of attachment. Cbz = O=C(OCc1ccccc1)*

Assays:
ISG15-conjugates = experiment: Western blot of ISG15-conjugates in MEFs treated with proteasome inhibitor; type: cell-based, murine
Protocol: (§1) (A) UBP43^+/+ and UBP43^−/− MEFs were incubated with or without IFNβ for 18 hours and were treated with lactacystin at a final concentration of 5 μM for 3 hours. An equal volume of DMSO (vehicle) was added to control samples. Cell lysates (10 μg total protein) were resolved on 8-18% minigel and western blot was performed with rabbit anti-mouse ISG15. The membrane was stripped and reprobed with anti-Ub serum. (B) UBP43^+/+ (not treated with IFN) and UBP43^−/− (incubated with IFNβ for 18 hours) MEFs were treated with MG132 at a final concentration of 10 μM for 3 hours. An equal volume of DMSO (vehicle) was added to control samples. PLCγ1 was immunoprecipitated and immunocomplexes were resolved on 7% minigel. The membrane was probed with anti-ISG15 and, after stripping, was reprobed with anti-PLCγ1. Positions of unmodified PLCγ1 are shown with arrows and positions of conjugates are shown with asterisks. Cell lysates (10 μg total protein) were also resolved on an identical minigel to assess amount of ISG15- and Ub-conjugates. Western blot was performed with rabbit anti-mouse ISG15 and after stripping the membrane was reprobed with anti-Ub serum.
(§2) Wild type and UBP43^−/− murine embryonic fibroblasts (MEFs) were generated from a litter of embryos on embryonic day 12.5. Briefly, embryonic torsos were minced and trypsinized for 30 min at 37° C. […]

ubiquitinated proteins = experiment: Western blot of ubiquitinated proteins in MEFs treated with proteasome inhibitor; type: cell-based, murine; conditions: UBP43−/− and UBP43+/+ MEFs, uninduced or IFNβ induced; lactacystin 5 μM for 3 hours
Protocol: as §1, §2

## CC(C)C[C@@H](C=O)NC(=O)[C@H](CC(C)C)NC(=O)[C@H](CC(C)C)NC(=O)OCc1ccccc1 [MG132] (Cbz-Leu-Leu-Leu-aldehyde)
ISG15-conjugates; UBP43+/+ (no IFN) and UBP43−/− (IFNβ 18 hours) MEFs, MG132 10 μM for 3 hours
  level of ISG15-conjugation: do not affect

## CC(=O)N[C@@H](CSC(=O)[C@]1([C@@H](O)C(C)C)NC(=O)[C@H](C)[C@@H]1O)C(=O)O [lactacystin]
ISG15-conjugates; UBP43−/− and UBP43+/+ MEFs, uninduced or IFNβ induced, lactacystin 5 μM for 3 hours
  amount of ISG15-conjugates, treated vs untreated samples: no difference
Ubiquitinated proteins
  amount of ubiquitinated proteins: increase
